The molecules below were run on P. Falciparum NF54 (assay: Plasmodium falciparum in vitro assay ([3H]-hypoxanthine incorporation)). Conditions: P. Falciparum NF54, erythrocytic stages in human red blood cells, 50% human serum.
Type: cell-based
Experimental: In Vitro Antimalarial Activity: Plasmodium falciparum In Vitro Assay: In vitro activity against erythrocytic stages of P. Falciparum in human red blood cells is determined using a [^3H]-hypoxanthine incorporation assay. One strain sensitive to all drugs (P. […] After 48 hours, [^3H]-hypoxanthine (0.5 μCi) is added to each well of a plate. The plates are incubated for a further 24 hours under the same conditions then harvested with a Betaplate cell harvester (Wallac) and washed with distilled water. The dried filters are inserted into a plastic foil with 10 mL of scintillation fluid and counted in a Betaplate liquid scintillation counter. IC50 values are calculated from sigmoidal inhibition curves using Microsoft Excel.
`CN1CCC(N2CCC(N(Cc3ccc(N(C)c4ccncc4)cc3)C(=O)/C=C/c3ccc(C(F)(F)F)cc3)C(F)C2)CC1` (racemic) [Example 78, (±)-(E)-N-(cis-3-fluoro-1′-methyl-[1,4′-bipiperidin]-4-yl)-N-(4-(methyl(pyridin-4-yl)amino)benzyl)-3-(4-(trifluoromethyl)phenyl)acrylamide] showed an IC50 of 12 nM.
`CN1CCC(N2CCC(N(Cc3ccc(N(C)c4ccncc4)cc3)C(=O)/C=C/c3ccc(C(F)(F)F)cc3)C(F)C2)CC1` (racemic) [Example 79, (±)-(E)-N-(trans-3-fluoro-1′-methyl-[1,4′-bipiperidin]-4-yl)-N-(4-(methyl(pyridin-4-yl)amino)benzyl)-3-(4-(trifluoromethyl)phenyl)acrylamide] was tested, and the IC50 was 21 nM.
`CN1CCC(N2C[C@H]3CC(N(Cc4ccc(N(C)c5ccncc5)cc4)C(=O)/C=C/c4ccc(C(F)(F)F)cc4)C[C@H]3C2)CC1` (single isomer, unassigned) [Example 64] was tested, and the IC50 was 12 nM.
For `CN(c1ccncc1)c1ccc(CN(C(=O)/C=C/c2ccc(C(F)(F)F)cc2)C2C[C@@H]3CN(C4CCCC4)C[C@@H]3C2)cc1` (single isomer, unassigned) [Example 66], the IC50 was 14 nM.
`CC(C)CCN1C[C@H]2CC(N(Cc3ccc(N(C)c4ccncc4)cc3)C(=O)/C=C/c3ccc(C(F)(F)F)cc3)C[C@H]2C1` (single isomer, unassigned) [Example 68] was tested, and the IC50 was 17 nM.
`CN(c1ccncc1)c1ccc(CN(C(=O)/C=C/c2ccc(C(F)(F)F)cc2)[C@H]2CCCNC2)cc1` [Example 2, (E)-N-[4-(Methyl-pyridin-4-yl-amino)-benzyl]-N-(S)-piperidin-3-yl-3-(4-trifluoromethyl-phenyl)-acrylamide] showed an IC50 of 82 nM.

Same assay, conditions: Plasmodium falciparum, Erythrocyte, P. Falciparum NF54, erythrocytic stages in human red blood cells, 50% human serum
With `CC(c1ccccc1)N1CCC(N(Cc2ccc(N(C)c3ccncc3)cc2)C(=O)/C=C/c2ccc(C(F)(F)F)cc2)CC1` (racemic) [Example 30, (±)-(E)-N-[4-(Methyl-pyridin-4-yl-amino)-benzyl]-N-[1-(1-phenyl-ethyl)-piperidin-4-yl]-3-(4-trifluoromethyl-phenyl)-acrylamide] the IC50 was 175 nM.
In the case of `CN1CCC(N2CCCC(N(Cc3ccc(N(C)c4ccncc4)cc3)C(=O)/C=C/c3ccc(C(F)(F)F)cc3)CC2)CC1` (racemic) [Example 57, (±)-(E)-N-(4-(methyl(pyridin-4-yl)amino)benzyl)-N-(1-(1-methylpiperidin-4-yl)azepan-4-yl)-3-(4-(trifluoromethyl)phenyl)acrylamide], the IC50 is reported as 18 nM.
With `CN(c1ccncc1)c1ccc(CN(C(=O)/C=C/c2ccc(C(F)(F)F)cc2)C2CCCN(C3CCCC3)CC2)cc1` (racemic) [Example 60, (±)-(E)-N-(1-cyclopentylazepan-4-yl)-N-(4-(methyl(pyridin-4-yl)amino)benzyl)-3-(4-(trifluoromethyl)phenyl)acrylamide] the IC50 was 79 nM.
Work on `CC(C)CCN1CCCC(N(Cc2ccc(N(C)c3ccncc3)cc2)C(=O)/C=C/c2ccc(C(F)(F)F)cc2)CC1` (racemic) [Example 63, (±)-(E)-N-(1-isopentylazepan-4-yl)-N-(4-(methyl(pyridin-4-yl)amino)benzyl)-3-(4-(trifluoromethyl)phenyl)acrylamide] yielded an IC50 of 85 nM.
`CN1CCC(N2CCCCC(N(Cc3ccc(N(C)c4ccncc4)cc3)C(=O)/C=C/c3ccc(C(F)(F)F)cc3)C2)CC1` (racemic) [Example 70, (±)-(E)-N-(4-(methyl(pyridin-4-yl)amino)benzyl)-N-(1-(1-methylpiperidin-4-yl)azepan-3-yl)-3-(4-(trifluoromethyl)phenyl)acrylamide] gave an IC50 of 20 nM.
`CN(c1ccncc1)c1ccc(CN(C(=O)/C=C/c2ccc(C(F)(F)F)cc2)C2CCCCN(C3CCCC3)C2)cc1` (racemic) [Example 71, (±)-(E)-N-(1-cyclopentylazepan-3-yl)-N-(4-(methyl(pyridin-4-yl)amino)benzyl)-3-(4-(trifluoromethyl)phenyl)acrylamide] gave an IC50 of 167 nM.
`CC(C)CCN1CCCCC(N(Cc2ccc(N(C)c3ccncc3)cc2)C(=O)/C=C/c2ccc(C(F)(F)F)cc2)C1` (racemic) [Example 72, (±)-(E)-N-(1-isopentylazepan-3-yl)-N-(4-(methyl(pyridin-4-yl)amino)benzyl)-3-(4-(trifluoromethyl)phenyl)acrylamide] showed an IC50 of 152 nM.
`CN(c1ccncc1)c1ccc(CN(C(=O)/C=C/c2ccc(C(F)(F)F)cc2)[C@H]2CCN(C3CCCC3)C[C@H]2F)cc1` (racemic) [Example 76, (±)-(E)-N-(cis-1-cyclopentyl-3-fluoropiperidin-4-yl)-N-(4-(methyl(pyridin-4-yl)amino)benzyl)-3-(4-(trifluoromethyl)phenyl)acrylamide] showed an IC50 of 50 nM.
Molecule `CC(C)CCN1CC[C@H](N(Cc2ccc(N(C)c3ccncc3)cc2)C(=O)/C=C/c2ccc(C(F)(F)F)cc2)[C@H](F)C1` (racemic) [Example 77, (±)-(E)-N-(cis-3-fluoro-1-isopentylpiperidin-4-yl)-N-(4-(methyl(pyridin-4-yl)amino)benzyl)-3-(4-(trifluoromethyl)phenyl)acrylamide] has an IC50 of 53 nM.
Molecule `CN(c1ccncc1)c1ccc(CN(C(=O)/C=C/c2ccc(C(F)(F)F)cc2)[C@@H]2CCN(C3CCCC3)C[C@H]2F)cc1` (racemic) [Example 80, (±)-(E)-N-(trans-1-cyclopentyl-3-fluoropiperidin-4-yl)-N-(4-(methyl(pyridin-4-yl)amino)benzyl)-3-(4-(trifluoromethyl)phenyl)acrylamide] has an IC50 of 105 nM.
In the case of `CC(C)CCN1CC[C@@H](N(Cc2ccc(N(C)c3ccncc3)cc2)C(=O)/C=C/c2ccc(C(F)(F)F)cc2)[C@H](F)C1` (racemic) [Example 81, (±)-(E)-N-(trans-3-fluoro-1-isopentylpiperidin-4-yl)-N-(4-(methyl(pyridin-4-yl)amino)benzyl)-3-(4-(trifluoromethyl)phenyl)acrylamide], the IC50 is reported as 122 nM.
Work on `COCC(C)N1CCC(N(Cc2ccc(Nc3ccnc(C)c3)cc2)C(=O)/C=C/c2ccc(C(F)(F)F)cc2)CC1` (racemic) [Example 84, (±)-(E)-N-[1-(2-Methoxy-1-methyl-ethyl)-piperidin-4-yl]-N-[4-(2-methyl-pyridin-4-ylamino)-benzyl]-3-(4-trifluoromethyl-phenyl)-acrylamide] yielded an IC50 of 42 nM.
`CN(c1ccncc1)c1ccc(CN(C(=O)/C=C/c2ccc(C(F)(F)F)cc2)C2CCN(C3CCCC3)C2)cc1` (racemic) [Example 99, (±)-(E)-N-(1-Cyclopentyl-pyrrolidin-3-yl)-N-[4-(methyl-pyridin-4-yl-amino)-benzyl]-3-(4-trifluoromethyl-phenyl)-acrylamide] was tested, and the IC50 was 43 nM.
In the case of `Cc1cc(Nc2ccc(CN(C(=O)/C=C/c3ccc(C(F)(F)F)cc3)C3CCN(C4CCCC4)C3)cc2)ccn1` (racemic) [Example 101, (±)-(E)-N-(1-Cyclopentyl-pyrrolidin-3-yl)-N-[4-(2-methyl-pyridin-4-ylamino)-benzyl]-3-(4-trifluoromethyl-phenyl)-acrylamide], the IC50 is reported as 43 nM.
`CN(c1ccncc1)c1ccc(CN(C(=O)/C=C/c2ccc(C(F)(F)F)cc2)C2CCNCC2)cc1` [Example 1, (E)-N-[4-(Methyl-pyridin-4-yl-amino)-benzyl]-N-piperidin-4-yl-3-(4-trifluoromethyl-phenyl)-acrylamide] gave an IC50 of 121 nM.
